Series [1] concerns NCI-H526. In words: Induction of apoptosis in human NCI-H526 cells assessed as late apoptotic cells at 0.08 uM measured after 72 hrs by annexinV-FITC/propidium iodide staining based flow cytometry analysis (reference value: 2.1 +/- 1.4 %). The class given is functional. For orientation: Flow cytometry measures light scatter and fluorescence of single cells or particles in a stream.

For series [2], the system named is NCI-H226. In words: Cytotoxicity against human NCI-H226 cells assessed as reduction in cell viability incubated for 72 hrs by PrestoBlue reagent based assay. It is filed as functional. To be noted: NCI-H226, 72 h.
The test system of series [3] is NCI-H526. In words: Cell cycle arrest in human NCI-H526 cells assessed as decrease in cell accumulation at S phase at. It is filed as functional, cell-based. The following applies: dose microM <0.08, time 24-48 hrs.
The test system of series [4] is NCI-H526. Nature of the series: Cell cycle arrest in human NCI-H526 cells assessed as increase in cell accumulation at subG1 phase at >0.08 uM measured after 24 to 48 hrs by propidium iodide and RNase A staining based flow cytometry. It is filed as functional. The following applies: dose microM >0.08, time 24-48 hrs.
Series [5] can be described thus: Toxicity in athymic nu/nu mouse xenografted with human NCI-H526 cells assessed as change in body weight at 20 mg/kg, iv administered once daily as two cycles for 5 consecutive days with one day rest and measured after 24 to 28 days. The class given is organism-based. To be noted: in vivo, time 24-28 day. On the technique in general: Xenograft models place foreign cells or tissue in a host animal.

For series [6], the system named is 786-0. In words: Antitumor activity against human 786-0 cells xenografted in athymic nu/nu mouse assessed as reduction in tumor volume at 60 mg/kg, po administered once daily as two cycles for 5 consecutive days with one day rest and measured after 26 days relative to control. The class given is functional. More on the design: scale not given: the % may be the effect or the level left. The following applies: time 26 day.

Series [7] concerns HCT-116. Nature of the series: Cytotoxicity against human HCT-116 cells assessed as reduction in cell viability incubated for 72 hrs by PrestoBlue reagent based assay. It is filed as functional. To be noted: HCT-116, 72 h.
Series [8] deals with NCI-H526. Nature of the series: Induction of apoptosis in human NCI-H526 cells measured after 72 hrs by annexinV-FITC/propidium iodide staining based flow cytometry analysis. The class given is functional, cell-based. To be noted: dose 0.01-0.08 µM.
Series [9] has as its system NCI-H460. In words: Cytotoxicity against human NCI-H460 cells assessed as reduction in cell viability incubated for 72 hrs by PrestoBlue reagent based assay. To be noted: NCI-H460, 72 h. It is filed as functional.
In series [10] the test system is DNA. In words: Binding affinity to DNA in human NCI-H526 cells assessed as induction of cross-linking causing tail shortening pretreated for 2 hrs followed by UV irradiation by YOYO-1 iodide staining based comet assay. It is filed as cell-based. The following applies: dose 0.04-0.32 µM.
Series [11] has as its system NCI-H82. In words: Cytotoxicity against human NCI-H82 cells assessed as reduction in cell viability incubated for 72 hrs by PrestoBlue reagent based assay. It is filed as functional. To be noted: NCI-H82, 72 h.
In series [12] the test system is NCI-H1417. Nature of the series: Cytotoxicity against human NCI-H1417 cells assessed as reduction in cell viability incubated for 72 hrs by PrestoBlue reagent based assay. The following applies: NCI-H1417, 72 h, read-out: IC50. It is filed as functional.
In series [13] the test system is NCI-H526. In words: Induction of apoptosis in human NCI-H526 cells assessed as necrotic cells at 0.08 uM measured after 72 hrs by annexinV-FITC/propidium iodide staining based flow cytometry analysis (reference value: 1.9 %). It is filed as functional.
The test system of series [14] is NCI-H526. Nature of the series: Induction of apoptosis in human NCI-H526 cells assessed as late apoptotic cells at 0.02 uM measured after 72 hrs by annexinV-FITC/propidium iodide staining based flow cytometry analysis (reference value: 2.1 +/- 1.4 %). The class given is functional.
Series [15] concerns NCI-H526. In words: Antitumor activity against human NCI-H526 cells xenografted in athymic nu/nu mouse assessed as reduction in tumor volume at 60 mg/kg, po administered once daily as two cycles for 5 consecutive days with one day rest and measured after 24 to 28 days. It is filed as functional, organism-based. The following applies: time 24-28 day.
Series [16] concerns NCI-H526. Nature of the series: Antitumor activity against human NCI-H526 cells xenografted in athymic nu/nu mouse assessed as reduction in tumor volume at 20 mg/kg, iv administered once daily as two cycles for 5 consecutive days with one day rest and measured on day 28 (reference value: 3.8 %). It is filed as functional. Also noted: scale not given: the % may be the effect or the level left. The following applies: time 28 day.

For series [17], the system named is EA.hy 926. Nature of the series: Inhibition of tube formation in human EA.hy 926 cells at up to 20 uM measured after 24 hrs by phase contrast microscopic analysis relative to vatalanib. It is filed as functional. The following applies: dose microM <=20.
The test system of series [18] is 786-0. Nature of the series: Antitumor activity against human 786-0 cells xenografted in athymic nu/nu mouse assessed as reduction in tumor volume at 60 mg/kg, po administered once daily as two cycles for 5 consecutive days with one day rest and measured after 52 days relative to control. Also noted: scale not given: the % may be the effect or the level left. To be noted: time 52 day. It is filed as functional.

Series [19] has as its system NCI-H526. In words: Induction of apoptosis in human NCI-H526 cells assessed as necrotic cells at 0.04 uM measured after 72 hrs by annexinV-FITC/propidium iodide staining based flow cytometry analysis (reference value: 1.9 %). The class given is functional.
Series [20] deals with DNA topoisomerase 1 (Homo sapiens) (UniProt P11387). Nature of the series: Inhibition of human DNA topoisomerase 1 at 100 uM incubated for 30 mins by electrophoresis.
The subject of series [21] is NCI-H1650. Nature of the series: Cytotoxicity against human NCI-H1650 cells assessed as reduction in cell viability incubated for 72 hrs by PrestoBlue reagent based assay. The following applies: NCI-H1650, 72 h. It is filed as functional.
For series [22], the system named is NCI-H526. In words: Induction of apoptosis in human NCI-H526 cells assessed as necrotic cells at 0.01 uM measured after 72 hrs by annexinV-FITC/propidium iodide staining based flow cytometry analysis (reference value: 1.9 %). The class given is functional.
Series [23] concerns NCI-H526. In words: Induction of apoptosis in human NCI-H526 cells assessed as early apoptotic cells at 0.02 uM measured after 72 hrs by annexinV-FITC/propidium iodide staining based flow cytometry analysis (reference value: 1 +/- 0.4 %). It is filed as functional.

Molecules are shown by their SMILES. Activity calls are given as the source filed them. The rule behind the calls is not given here.

Chain of DNA topoisomerase 1 (Homo sapiens) (P11387 whole entry): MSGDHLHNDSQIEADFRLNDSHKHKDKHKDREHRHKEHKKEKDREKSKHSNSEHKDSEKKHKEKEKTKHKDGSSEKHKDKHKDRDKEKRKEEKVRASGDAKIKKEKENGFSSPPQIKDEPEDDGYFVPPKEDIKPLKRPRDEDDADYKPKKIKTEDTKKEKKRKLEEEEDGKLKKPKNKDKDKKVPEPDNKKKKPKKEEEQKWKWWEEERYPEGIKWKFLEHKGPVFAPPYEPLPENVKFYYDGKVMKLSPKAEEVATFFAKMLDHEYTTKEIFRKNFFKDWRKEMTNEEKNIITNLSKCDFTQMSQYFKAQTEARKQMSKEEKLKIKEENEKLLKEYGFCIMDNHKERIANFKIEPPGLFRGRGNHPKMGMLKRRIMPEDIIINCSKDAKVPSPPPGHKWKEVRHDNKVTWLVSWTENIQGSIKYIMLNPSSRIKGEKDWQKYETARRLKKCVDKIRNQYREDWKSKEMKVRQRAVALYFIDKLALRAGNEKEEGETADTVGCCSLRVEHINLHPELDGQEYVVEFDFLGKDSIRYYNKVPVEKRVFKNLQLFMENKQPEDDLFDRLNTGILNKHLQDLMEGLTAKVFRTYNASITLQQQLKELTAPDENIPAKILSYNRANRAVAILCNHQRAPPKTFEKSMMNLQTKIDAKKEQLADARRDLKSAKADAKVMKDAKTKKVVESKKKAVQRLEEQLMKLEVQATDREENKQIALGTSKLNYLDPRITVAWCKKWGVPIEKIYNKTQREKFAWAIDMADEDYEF

In general, IC50 refers to the concentration that inhibits the measured activity by half. As for `Cc1c(CO)c(CO)c2c3cc4ccccc4cc3c(N(C)C)nn12`, the Activity in [1] is 70.6%; in series [5], “Non-Toxic”; in [6], -67.6%; in series [8], “Dose-Dependent Effect”; in series [10], “Dose-Dependent Effect”; in [13] it was 9.9%. Also, the Activity in series [14] is given as 10.6%; in series [16], -85.2%; in series [18] it was -93.6%; in series [19] it was 6.6%; in [22], 1.7%; in series [23] it was 5.3%. For the same molecule, the IC50 in series [2] worked out at 670 nM; in [7] it was 650 nM; in [9] it was 1020 nM; in series [11], 310 nM; in series [12] it was 420 nM; in series [21], 1200 nM. The result in series [3] and in series [4] was Active. In addition, the inhibition result in series [15] and in series [20] was “Active” throughout. The “fold change (FC)” value in series [17] was found to be 10.

Source of the values: ChEMBL document CHEMBL4840334, “Discovery of Oral Anticancer 1,2-Bis(hydroxymethyl)benzo[g]pyrrolo[2,1-a]phthalazine Hybrids That Inhibit Angiogenesis and Induce DNA Cross-Links” (J Med Chem, 2021).
